The test system of the assay is HLA-B14:02 wt. Briefly: Binding stability assay, refolded HLA-I/peptide complex, ELISA. Details: species or system human. The method, then: W97R mutation was introduced into HLA-B14:02 wt by overlap extension PCR and confirmed by DNA sequencing. BL21(DE3)pLys bacterial cells were used to produce HLA-B14:02 wt and W97R as inclusion bodies. Four peptides with histidine or arginine at P2 (A[H/R]TKPRPAL, G[H/R]YDRSKSL, A[H/R]FAKSISL, H[H/R]FEKAVTL) were synthesized at the Peptide Facility (UNIL, Lausanne) with free N and C-termini (1mg of each peptide, > 80% purity). Peptides with histidine at P2 come from our HLA peptidomics data and were assigned to HLA-B15:18 by our mixture model algorithm. Based on our analysis of HLA sequence and structure, peptides with histidine at P2 are predicted to interact with HLA-B14:02 W97R, while peptides with arginine at P2 are predicted to bind better HLA-B14:02 wt.
Synthetic peptides were incubated separately with denaturated […] mutant refolded by dilution in the presence of biotinylated beta-2 microglobulin proteins at temperature T = 4°C for 48 hours. […] Negative controls consist of absence of peptides. koff were determined by fitting exponential curves to the light intensity values obtained by ELISA at different time points. […] For two peptides showing exceptionally high binding stability, only lower bounds on half-lives could be determined (dashed lines in Fig 5D).
(ELISA stands for enzyme-linked immunosorbent assay.)

With “AHTKPRPAL [synthetic HLA-B15:18 ligand from HLA peptidomics data, histidine at P2, free N and C-termini]”, the “binding of the peptide” value was “fully abolished”.

The values are drawn from PMC5584980, “Deciphering HLA-I motifs across HLA peptidomes improves neo-antigen predictions and identifies allostery regulating HLA specificity” (PLoS Computational Biology, 2017).
